Measurements published in patent publication US4296032A (priority 1979, dated 1981).

Assays:
Format in all cases: cell-based
Staph. aureus Russell = assay: MIC of ampicillin in the presence of the inhibitor, Staph. aureus Russell
Method: (§1) The MIC of ampicillin was determined in the presence of the pivaloyloxymethyl ester of 6-β-bromopenicillanic acid (inhibitor).

E. coli JT. 39 = assay: MIC of ampicillin in the presence of the inhibitor, E. coli JT. 39
Method: as §1

Proteus sp. C889 = assay: MIC of ampicillin in the presence of the inhibitor, Proteus sp. C889
Method: as §1

Klebsiella aerogenes E70 = assay: MIC of ampicillin in the presence of the inhibitor, Klebsiella aerogenes E70
Method: as §1

CC(C)(C)C(=O)OCOC(=O)[C@@H]1N2C(=O)[C@@H](Br)[C@H]2SC1(C)C [pivaloyloxymethyl 6β-bromopenicillanate]
MIC of Ampicillin (Staph. aureus Russell; inhibitor conc. 5 μg/ml): 3.1 µg/mL | MIC of Ampicillin (Staph. aureus Russell; inhibitor conc. 20 μg/ml): 0.78 µg/mL | MIC of Ampicillin (E. coli JT. 39; inhibitor conc. 5 μg/ml): 4 µg/mL | MIC of Ampicillin (E. coli JT. 39; inhibitor conc. 20 μg/ml): 2 µg/mL | MIC of Ampicillin (Proteus sp. C889; inhibitor conc. 5 μg/ml): 31 µg/mL | MIC of Ampicillin (Proteus sp. C889; inhibitor conc. 20 μg/ml): 8 µg/mL | MIC of Ampicillin (Klebsiella aerogenes E70; inhibitor conc. 5 μg/ml): 12.5 µg/mL | MIC of Ampicillin (Klebsiella aerogenes E70; inhibitor conc. 20 μg/ml): 6.2 µg/mL
